{
  "source": "patent US20240058337A1",
  "about": "“Managing Side Effects in T Cell Therapy” (Innovative Cellular Therapeutics Holdings, Ltd., priority 2022, published 2024)",
  "type_in_all_cases": "in vivo, human",
  "key": {"[1]": {"tested_on": "colorectal cancer (CRC) patients", "assay": "Clinical trial of mixed population of cells including GCC CAR T cells: diarrhea side effect and its management", "description": "(§1) This system was implemented in a clinical trial involving 35 colorectal cancer (CRC) patients, which were treated with mixed population of cells including GCC CAR T cells. Diarrhea, a common side effect, typically presented as early as day 7 (median=9, range 7-15) at a grade two severity or higher. The primary treatment for this was immediate administration of infliximab and, in some cases, dasatinib.\n(§2) For the 1×10^6 CAR T/kg of body weight dose, half of the patients managed their diarrhea through supportive care and antidiarrheal medication. Around 85% experienced grade 2 or higher diarrhea, 67% of whom responded well to a single dose of infliximab. At a higher dose of 2×10^6 CAR T/kg bodyweight, only 13% of patients could control diarrhea with supportive care or antidiarrheal drugs, and all patients experienced a grade 2 or higher diarrhea, but only 43% responded to a single infliximab dose. […] In such cases, dasatinib was administered at 100 mg/day for over ten consecutive days until the patient's side effects reduced to grade 1 or less, and the patient was ready for discharge."}, "[2]": {"tested_on": "colorectal cancer (CRC) patients", "assay": "Clinical trial: response and disease control to CAR T therapy with or without dasatinib", "conditions": "patients who got dasatinib", "description": "as §1, §2"}, "[3]": {"tested_on": "Cytokine Release Syndrome (CRS)", "assay": "Cytokine Release Syndrome (CRS) management after CAR T therapy", "conditions": "grade 2 fever not resolved within 6 hours with conventional antipyretic methods", "description": "This fever typically occurs earliest on day 3 (median is day 5, range is day 3-12). Tocilizumab administration results in remission in 90% of cases. However, if 24 hours after administering tocilizumab, the patient still presents with a grade 2 or higher fever or a refractory fever, treatment with corticosteroids should be initiated following ASCO guidelines. The remaining 10% of patients typically responds well to corticosteroids. If there is no improvement within 24 hours after this step, the administration of dasatinib at 100 mg once daily for 2-3 days can be administered."}},
  "data": [
    {"molecule": "infliximab", "values": [
      {"measurement": "patients with grade 2 or higher diarrhea who responded well to a single dose of infliximab", "setting": "[1]; 1×10^6 CAR T/kg of body weight", "value": 67, "unit": "%"},
      {"measurement": "patients with grade 2 or higher diarrhea who responded to a single infliximab dose", "setting": "[1]; 2×10^6 CAR T/kg bodyweight", "value": 43, "unit": "%"},
      {"measurement": "patients who benefitted from a single dose of infliximab", "setting": "[1]; 3×10^6 CAR T/kg body weight", "value": "fewer patients benefitted"}
    ]},
    {"molecule": "Cc1nc(Nc2ncc(C(=O)Nc3c(C)cccc3Cl)s2)cc(N2CCN(CCO)CC2)n1", "note": "[dasatinib]", "values": [
      {"measurement": "Disease Control Rate", "setting": "[2]; 1 million cells/kg", "value": 33.3, "unit": "%"},
      {"measurement": "Response Rate to CAR T Therapy", "setting": "[2]; 1 million cells/kg", "value": 0, "unit": "%"},
      {"measurement": "Disease Control Rate", "setting": "[2]; 2 million+ cells/kg", "value": 75, "unit": "%"},
      {"measurement": "Response Rate to CAR T Therapy", "setting": "[2]; 2 million+ cells/kg", "value": 50, "unit": "%"}
    ]},
    {"molecule": "Tocilizumab", "values": [
      {"measurement": "remission of grade 2 fever (CRS) after tocilizumab administration, cases", "setting": "[3]", "value": 90, "unit": "%"}
    ]}
  ]
}
